Experiments:
[1] = system: CAKI-1; test: Cytotoxicity against human CAKI-1 cells assessed as cell viability at 10 uM incubated for 1 day by MTT assay relative to control; format: functional; conditions: CAKI-1, 24 h, read-out: Activity
[2] = system: CAKI-1; test: Cytotoxicity against human CAKI-1 cells assessed as reduction in cell viability incubated for 1 day by MTT assay; format: functional, cell-based; conditions: CAKI-1, 24 h
[3] = molecular target: Mitotic checkpoint serine/threonine-protein kinase BUB1 beta (Homo sapiens, UniProt O60566); test: Inhibition of recombinant BUB1B (unknown origin) incubated for 60 mins in presence of [gamma-33P]-ATP by microplate scintillation counter analysis
Mitotic checkpoint serine/threonine-protein kinase BUB1 beta, sequence (O60566 whole entry): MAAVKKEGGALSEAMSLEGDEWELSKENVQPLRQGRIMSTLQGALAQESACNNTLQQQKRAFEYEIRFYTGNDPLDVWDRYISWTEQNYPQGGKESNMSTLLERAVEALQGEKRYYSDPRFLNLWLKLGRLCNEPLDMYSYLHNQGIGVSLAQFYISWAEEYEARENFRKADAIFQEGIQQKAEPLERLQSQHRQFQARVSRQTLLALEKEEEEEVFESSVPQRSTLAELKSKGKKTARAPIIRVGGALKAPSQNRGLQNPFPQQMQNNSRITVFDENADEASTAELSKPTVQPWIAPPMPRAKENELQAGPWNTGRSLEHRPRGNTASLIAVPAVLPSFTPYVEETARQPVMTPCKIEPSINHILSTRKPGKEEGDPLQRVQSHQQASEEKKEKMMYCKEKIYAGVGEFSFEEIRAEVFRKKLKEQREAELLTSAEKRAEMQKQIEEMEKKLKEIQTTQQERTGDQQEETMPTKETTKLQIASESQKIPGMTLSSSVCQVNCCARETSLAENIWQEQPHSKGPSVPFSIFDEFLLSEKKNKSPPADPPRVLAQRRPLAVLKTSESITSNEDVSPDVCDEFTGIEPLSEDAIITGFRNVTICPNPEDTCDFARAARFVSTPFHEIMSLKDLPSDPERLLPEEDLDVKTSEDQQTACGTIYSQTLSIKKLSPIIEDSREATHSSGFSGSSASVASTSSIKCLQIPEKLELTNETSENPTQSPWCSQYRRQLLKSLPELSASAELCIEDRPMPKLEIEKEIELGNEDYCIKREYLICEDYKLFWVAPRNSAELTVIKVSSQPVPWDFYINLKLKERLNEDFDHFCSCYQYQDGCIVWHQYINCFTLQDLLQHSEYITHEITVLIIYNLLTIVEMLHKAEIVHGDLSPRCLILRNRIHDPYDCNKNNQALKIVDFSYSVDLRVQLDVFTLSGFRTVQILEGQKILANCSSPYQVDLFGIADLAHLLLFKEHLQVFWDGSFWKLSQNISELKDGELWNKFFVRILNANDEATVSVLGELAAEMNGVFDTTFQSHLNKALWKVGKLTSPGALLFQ

Row | IC50 [3] [µM] | Structure (SMILES) | viability at 10 µM [1] [%] | IC50 [2] [µM]
1 |  | Cc1cnc(Nc2ccc(N3CCN(S(=O)(=O)c4ccccc4)CC3)cc2)nc1Nc1cccc(S(=O)(=O)NC(C)(C)C)c1 | 83.8 | 
2 |  | CNC(=O)N1CCN(c2ccc(Nc3ncc(C)c(Nc4cccc(S(=O)(=O)NC(C)(C)C)c4)n3)cc2)CC1 | 40.6 | 
3 |  | COc1cccc(Nc2ncc(C)c(Nc3cccc(S(=O)(=O)NC(C)(C)C)c3)n2)c1OC | 78 | 
4 |  | COc1cc(Nc2ncc(C)c(Nc3cccc(S(=O)(=O)NC(C)(C)C)c3)n2)cc(OC)c1 | 46.5 | 2.79
5 |  | COc1ccc(Nc2ncc(C)c(Nc3cccc(S(=O)(=O)NC(C)(C)C)c3)n2)c(OC)c1 | 66.5 | 
6 |  | COc1ncnc(NS(=O)(=O)c2ccc(Nc3ncc(C)c(Nc4cccc(S(=O)(=O)NC(C)(C)C)c4)n3)cc2)c1OC | 104 | 
7 |  | Cc1cc(NS(=O)(=O)c2ccc(Nc3ncc(C)c(Nc4cccc(S(=O)(=O)NC(C)(C)C)c4)n3)cc2)no1 | 95.5 | 
8 |  | COc1cc(Nc2ncc(C)c(Nc3cccc(S(=O)(=O)NC(C)(C)C)c3)n2)c(Cl)cc1Cl | 108 | 
9 |  | Cc1cn(-c2cc(Nc3ncc(C)c(Nc4cccc(S(=O)(=O)NC(C)(C)C)c4)n3)cc(C(F)(F)F)c2)cn1 | 49.6 | 
10 |  | Cc1cnc(Nc2ccc(N3CCN(C(=O)N(C)c4ccccc4)CC3)cc2)nc1Nc1cccc(S(=O)(=O)NC(C)(C)C)c1 | 44.5 | 
11 |  | Cc1ccc(Nc2ncc(C)c(Nc3cccc(S(=O)(=O)NC(C)(C)C)c3)n2)cc1S(N)(=O)=O | 43.2 | 
12 | 13.1 | Cc1cc(Nc2ncc(Cl)c(Nc3ccccc3S(=O)(=O)C(C)C)n2)c(OC(C)C)cc1C1CCNCC1 [CERITINIB] |  | 
13 |  | Cc1cnc(Nc2ccc(N3CCN(C(=O)Nc4ccccc4F)CC3)cc2)nc1Nc1cccc(S(=O)(=O)NC(C)(C)C)c1 | 46.7 | 
14 |  | Cc1cnc(Nc2ccc(OCCCN3CCOCC3)cc2)nc1Nc1cccc(S(=O)(=O)NC(C)(C)C)c1 | 41.9 | 
15 |  | Cc1cnc(Nc2ccc(N3CCN(C(=O)N4CCCC4)CC3)cc2)nc1Nc1cccc(S(=O)(=O)NC(C)(C)C)c1 | 43.1 | 
16 |  | Cc1ccccc1NC(=O)N1CCN(c2ccc(Nc3ncc(C)c(Nc4cccc(S(=O)(=O)NC(C)(C)C)c4)n3)cc2)CC1 | 45 | 
17 |  | Cc1cnc(Nc2ccccc2P(C)(C)=O)nc1Nc1cccc(S(=O)(=O)NC(C)(C)C)c1 | 84.4 | 
18 |  | Cc1cnc(Nc2ccc(N3CCN(C)CC3)cc2)nc1Nc1cccc(S(=O)(=O)NC(C)(C)C)c1C | 52.1 | 
19 |  | C=CC(=O)N1CCN(c2ccc(Nc3ncc(C)c(Nc4cccc(S(=O)(=O)NC(C)(C)C)c4)n3)cc2)CC1 | 44.6 | 
20 |  | Cc1ccc(Nc2nc(Nc3ccc(N4CCN(C)CC4)cc3)ncc2C)cc1S(N)(=O)=O | 34.7 | 

Reference: ChEMBL document CHEMBL6121040, “Synthesis and biological assessment of BUB1B inhibitors for the treatment of clear cell renal cell carcinoma” (Eur J Med Chem, 2025)
